According to patent EP2030621A1, “Novel substituted pyrimidines as cysteine protease inhibitors” (GLAXO GROUP LIMITED, priority 2007, dated 2009):
Where a name gives a salt, the structure may show the parent alone. Read-outs that look alike come from different tables or passages of the source.

Tested on: Plasmodium falciparum parasite
Assay: Whole cell assay: whole cell activity against the parasite
Type: cell-based
Source text: Compounds can be evaluated for whole cell actvity against the Plasmadium falciparum parasite according to the procedure described in Sijwali S. and Rosenthal P. J., (2004) Proceedings of the National Academy of Sciences of the United States of America (PNAS) 101(13), 4384-4389 (see in particular "Measurement of Parasite Growth rates and Inhibitor Sensitivity" on page 4385); IC50 values can be calculated as described in Singh A. and Rosenthal P. J., (2001) Antimicrobial Agents and Chemotherapy 45(3), 949-951 (see in particular page 950, first column); synchronised parasites can be prepared as described in Divo A. A. et al., (1985) Protozool. 32, 59-64. 3) In vitro models to evaluate activity against bone metastasis

IC50 (Plasmodium falciparum) [µM]	Structure (SMILES)	also measured
0.015 to 0.15	CN1CCCC(CN2CCN(Cc3ccc(C(=O)NN(c4nc(C#N)ncc4Br)C4CCOCC4)cc3)CC2)C1 (stereo not shown) [Example 31, N'-(5-Bromo-2-cyano-4-pyrimidinyl)-4-({4-[(1-methyl-3-pipendinyl)methyl]-1-piperazinyl}methyl)-N'-(tetrahydro-2H-pyran-4-yl)benzohydrazide trifluoroacetate]	
0.015 to 0.15	CN1CCN(C(=O)C2CCN(Cc3ccc(C(=O)NN(c4nc(C#N)ncc4Br)C4CCOCC4)cc3)CC2)CC1 [Example 32, N'-(5-Bromo-2-cyano-4-pyrimidinyl)-4-({4-[(4-methyl-1-piperazinyl)carbonyl]-1-piperidinyl}methyl)-N'-(tetrahydro-2H-pyran-4-yl)benzohydrazide trifluoroacetate]	
0.015 to 0.15	N#Cc1ncc(Br)c(N(NC(=O)c2ccc(CN3CC(N4CCCC4)C3)cc2)C2CCOCC2)n1 [Example 33, N'-(5-bromo-2-cyano-4-pyrimidinyl)-4-{[3-(1-pyrrolidinyl)-1-azetidinyl]methyl}-N'-(tetrahydro-2H-pyran-4-yl)benzohydrazide trifluoroacetate]	
0.0025 to 0.015	CN1CCN(C2CCN(Cc3ccc(C(=O)NN(c4nc(C#N)ncc4Cl)C4CCOCC4)cc3)CC2)CC1 [Example 34, N'-(5-Chloro-2-cyano-4-pyrimidinyl)-4-{[4-(4-methyl-1-piperazinyl)-1-piperidinyl]methyl}-N'-(tetrahydro-2H-pyran-4-yl)benzohydrazide trifluoroacetate]	
0.015 to 0.15	CN1CCC(CN2CCN(Cc3ccc(C(=O)NN(c4nc(C#N)ncc4Cl)C4CCOCC4)cc3)CC2)CC1 [Example 35, N'-(5-Chloro-2-cyano-4-pyrimidinyl)-4-({4-[(1-methyl-4-piperidiny)methyl]-1-piperazinyl}methyl)-N'-(tetrahydro-2H-pyran-4-yl)benzohydrazide trifluoroacetate]	
	CN1CCN(C2CCN(Cc3ccc(C(=O)NN(c4nc(C#N)ncc4Cl)C4CCCCC4)cc3)CC2)CC1 [Example 40, N'-(5-chloro-2-cyano-4-pyrimidinyl)-N'-cyclohexyl-4-{[4-(4-methyl-1-piperazinyl)-1-piperidinyl]methyl}benzohydrazide]	IC50: 0.0025 to 0.015 µM
	CN1CCN(C2CCN(Cc3ccc(C(=O)NN(c4nc(C#N)ncc4Cl)C4CCCCC4)cc3)CC2)CC1 [Example 41, N'-(5-chloro-2-cyano-4-pyrimidinyl)-N'-cyclohexyl-4-{[4-(4-methyl-1-piperazinyl)-1-piperidinyl]methyl}benzohydrazide dihydrochloride]	IC50 (dihydrochloride): 0.001 to 0.0025 µM
0.015 to 0.15	CN1CCN(Cc2ccc(-c3ccc(C(=O)NN(c4nc(C#N)ncc4Br)C4CCCCC4)cn3)cc2)CC1 [Example 44, N'-(5-bromo-2-cyano-4-pyrimidinyl)-N'-cyclohexyl-6-{4-[(4-methyl-1-piperazinyl)methyl]phenyl}-3-pyridinecarbohydrazide trifluoroacetate]	
0.015 to 0.15	CN1CCN(Cc2ccc(-c3cncc(C(=O)NN(c4nc(C#N)ncc4Br)C4CCCC4)c3)cc2)CC1 [Example 45, N'-(5-bromo-2-cyano-4-pyrimidinyl)-N'-cyclopentyl-5-{4-[(4-methyl-1-piperazinyl)methyl]phenyl}-3-pyridinecarbohydrazide trifluoroacetate]	
0.0025 to 0.015	CN1CCN(Cc2ccc(-c3ccc(C(=O)NN(c4nc(C#N)ncc4Br)C4CCCC4)cn3)cc2)CC1 [Example 46, N'-(5-bromo-2-cyano-4-pyrimidinyl)-N'-cyclopentyl-6-{4-[(4-methyl-1-piperazinyl)methyl]phenyl}-3-pyridinecarbohydrazide trifluoroacetate]	
0.0025 to 0.015	CN1CCN(Cc2cccc(-c3cncc(C(=O)NN(c4nc(C#N)ncc4Br)C4CCCCC4)c3)c2)CC1 [Example 47, N'-(5-bromo-2-cyano-4-pyrimidinyl)-N'-cyclohexyl-5-{3-[(4-methyl-1-piperazinyl)methyl]phenyl}-3-pyridinecarbohydrazide trifluoroacetate]	
0.015 to 0.15	CN1CCN(C2CCN(Cc3ccc(C(=O)NN(c4nc(C#N)ncc4Br)C4CCN(C(=O)OCc5ccccc5)CC4)cc3)CC2)CC1 [Example 48, Phenylmethyl 4-{1-(5-bromo-2-cyano-4-pyrimidinyl)-2-[(4-{[4-(4-methyl-1-piperazinyl)-1-piperidinyl]methyl}phenyl)carbonyl]hydrazino}-1-piperidinecarboxylate triflouroacetate]	
0.015 to 0.15	CC(=O)N1CCC(N(NC(=O)c2ccc(CN3CCC(C(=O)N4CCN(C)CC4)CC3)cc2)c2nc(C#N)ncc2Br)CC1 [Example 49, N'-(1-acetyl-4-piperidinyl)-N'-(5-bromo-2-cyano-4-pyrimidinyl)-4-({4-[(4-methyl-1-piperazinyl)carbonyl]-1-piperidinyl}methyl)benzohydrazide trifluoroacetate]	
0.015 to 0.15	CN1CCN(Cc2ccc(C(=O)NN(c3nc(C#N)ncc3Cl)C3CCCCC3)cc2)CC1 [Example 51, N'-(5-chloro-2-cyano-4-pyrimidinyl)-N'-cyclohexyl-4-[(4-methyl-1-piperazinyl)methyl]benzohydrazide trifluoroacetate]	
0.015 to 0.15	CN1CCN(c2ccc(C(=O)NN(c3nc(C#N)ncc3Cl)C3CCCC3)cc2)CC1 [Example 52, N'-(5-chloro-2-cyano-4-pyrimidinyl)-N'-cyclopentyl-4-(4-methyl-1-piperazinyl)benzohydrazide trifluoroacetate]	
0.0025 to 0.015	CN(Cc1ccc(C(=O)NN(c2nc(C#N)ncc2Cl)C2CCCC2)cc1)C1CCCCC1 [Example 53, N'-(5-chloro-2-cyano-4-pyrimidinyl)-4-{[cyclohexyl(methyl)amino]methyl}-N'-cyclopentylbenzohydrazide trifluoroacetate]	
0.015 to 0.15	CN(C)Cc1ccc(C(=O)NN(c2nc(C#N)ncc2Cl)C2CCCC2)cc1 [Example 54, N'-(5-chloro-2-cyano-4-pyrimidinyl)-N'-cyclopentyl-4-[(dimethylamino)methyl]benzohydrazide trifluoroacetate]	
0.015 to 0.15	CCCN(C)Cc1ccc(C(=O)NN(c2nc(C#N)ncc2Cl)C2CCCC2)cc1 [Example 55, N'-(5-chloro-2-cyano-4-pyrlmidinyl)-N'-cycyopentyl-4-{[methyl(propyl)amino]methyl}benzohydrazide trifluoroacetate]	
0.015 to 0.15	CCCCCCN(C)Cc1ccc(C(=O)NN(c2nc(C#N)ncc2Cl)C2CCCC2)cc1 [Example 56, N'-(5-chloro-2-cyano-4-pyrimidinyl)-N'-cyclopentyl-4-{[hexyl(methyl)amino]methyl}benzohydrazide trifluoroacetate]	
0.015 to 0.15	CCCCN(C)Cc1ccc(C(=O)NN(c2nc(C#N)ncc2Cl)C2CCCC2)cc1 [Example 57, 4-{[butyl(methyl)amino]methyl}-N'-(5-chloro-2-cyano-4-pyrimidinyl)-N'-cyclopentylbenzohydrazide trifluoroacetate]	
0.015 to 0.15	CN(CCO)Cc1ccc(C(=O)NN(c2nc(C#N)ncc2Cl)C2CCCC2)cc1 [Example 58, N'-(5-chloro-2-cyano-4-pyrimidinyl)-N'-cyclopentyl-4-{[(2-hydroxyethy)(methyl)amino]methyl}benzohydrazide trifluoroacetate]	
0.015 to 0.15	CN(CCC(O)c1ccccc1)Cc1ccc(C(=O)NN(c2nc(C#N)ncc2Cl)C2CCCC2)cc1 (stereo not shown) [Example 59, N'-(5-chloro-2-cyano-4-pyrimidinyl)-N'-cyclopentyl-4-{[(3-hydroxy-3-phenylpropyl)(methyl)amino]methyl}benzohydrazide trifluoroacetate]	
